Source: US6894153B1, “Gene Any-RF; dormancy regulatory substance, process for producing the same and cell regulator for vital cells” (priority 1999, dated 2005)
No end group written: not given here.

Key:
[1] = system: pre-larvae of Antheraea yamamai; assay: Bioassay of dormancy-control in pre-larvae destined to awake by KK-42 treatment
Protocol: In general, the activity of a repressive factor is determined using a non-dormancy type insect and evaluated on the basis of the rate of dormancy induction, but there is not any non-dormancy type strain in Antheraea yamamai.
Subsequent to the completion of the treatment for awakening from the dormancy, 0.05 μl each of distilled water was injected to each larva after 24 hours from the completion of the treatment and this group of larvae was used as the control group. In the case of the isolated and purified product, a solution whose concentration was adjusted in such a manner that 100 pmol of the product was present in 0.05 μl of distilled water was injected into each larva, while in the case of the synthetic peptides in the amidated and free acid forms, 100 pmol/0.05 μl each of the peptide was injected into each larva. In any case, the larvae were inspected for the number of larvae falling into dormancy, the number of larvae awakening from the dormancy, the number of died larvae and the average days required till awakening from the dormancy (diapause termination) to thus evaluate the rate of larvae awakening from the dormancy.
After 24 hours from the treatment with the KK-42 solution, 0.05 μl of distilled water was injected to the pre-larvae, followed by a second distilled water injection thereto after additional 24 hours and a third distilled water injection after additional 24 hours from the second distilled water injection (in the following Table 2, they are referred to as control 1, 2 and 3 respectively). And the rate of pre-larvae awaken from the dormancy (the rate of diapause termination) was evaluated in each case.

[2] = system: cultured cells of lymphoma and leukemia; settings: Moore et al. 1994; cited from earlier work
[3] = Acute toxicity test in mice; type: in vivo
Protocol: (§1) The foregoing peptide of the present invention as the physiologically active substance is almost free of an) side effect in the living body as compared with the conventional Cecropin and Pierisin and any acute toxicity is not observed at all. More specifically, the peptide of the present invention was administered to rats and mice through two routes, i.e., oral and percutaneous routes, in an amount of 0.5 g per unit body weight (1 kg) and the acute toxicity test was carried out according to the predetermined method. […] Moreover, the testis of the genital organ was removed from each animal after the acute toxicity test and the tissue was examined with a microscope. […] In addition, the peptide of the present invention is a low molecular weight penta-peptide and therefore, it never causes any antigen-antibody reaction and it is safe.

[4] = system: rat hepatoma cells (dRLh84); assay: Morphological observation of cultured cancer cells (inverted microscope); type: cell-based; settings: 200 μg/ml
Protocol: (§2) Rat hepatoma cells (dRLh 84) were used and these cells were cultivated in Dulbecco's modified Eagle medium (DMEM) containing 4 mM glutamine, 50U/ml penicillin, 100 μg/ml kanamycin, and supplemented with 10% neonatal calf serum. In respect of the foregoing cells, the cultivation thereof was carried out at 37° C. in a wet atmosphere including 5% CO2.
The inhibitory effect of the penta-peptide on the growth of cancer cells was examined as follows. As the cancer cells, there were used rat hepatoma cells (dRLh84), which were relatively easily available and whose cultivation was easy. To make clear the relation between the physiologically active substance (RF—NH2) of the present invention and the growth of cancer cells, cancer cells were cultured in a cell culture medium supplemented with PBS(−) for a control group and culture mediums supplemented with 200 μg/ml each of the peptide whose C-terminal was amidated, i.e., RF—NH2 and the peptide whose C-terminal was in a free acid form, i.e., RF—COOH, respectively, for the experimental groups. The number of cultured cells was adjusted to 3 to 5×10^5, and the cells were cultured with or without a predetermined amount of each peptide in the presence of 5% CO2 at 37° C. […]

[5] = Acute toxicity test in rats; type: in vivo
Protocol: as §1

[6] = system: rat hepatoma cells (dRLh84); assay: Flow cytometric analysis of cell cycle (propidium iodide DNA content); type: cell-based; settings: 200 μg/ml; 48 hours
Protocol: The cells treated with each peptide was fixed at 4° C. for 4 hours using 70% ethanol. The fixed cells were washed with PBS(−), then treated with 2 mg/ml of RNaseA at 37° C. for 30 minutes to thus […] the RNA. Thereafter, the cells were stained with propidium iodide (25 μg/ml) for not less than 30 minutes and filtered through a nylon mesh. Then the intensity of fluorescence (DNA content per cell) observed for 10,000 cells was analyzed using a flow cytometer ([…] available from Becton Dickinson Company).
The fact that the physiologically active substance of the present invention can inhibit the cell growth ability of the rat hepatoma is substantiated experimentally by the results obtained in Examples 6, 7 and 8 (FIGS. 9, 10 and 11). Thus, we tried to elucidate the mechanism of the inhibition. The peptide (DILRG—NH2)(200 μg/ml) was added to the culture medium under the same conditions used in Example 6 and the cells were cultured, followed by fixing the cells after cultivation of 48 hours with ethanol and then staining the cells with propidium iodide. In addition, the same procedures used above were repeated using a culture medium supplemented with PBS(−) as a control group. The DNA content in the cells was analyzed using a flow cytometer. The flow cytometric analysis employed for this purpose comprises the step of staining cells with propidium iodide, which is a fluorescent dye capable of being linked with DNA to thus determine the DNA content of the cell and this method permits the analysis of the cell cycle control. More specifically, the biological cell multiplies by cell division while undergoing the following cycle change: G0/G 1. S (DNA replication stage) and M stage (cell division stage) in this order. FIGS. 12(A) and 12(B) are graphs each showing the results obtained by determining the DNA content in each cancer cell using a flow cytometer and then analyzing the results. It can be predicted from the data shown in FIGS. 12(A) and 12(B), i.e., the cell cycle change observed for the control group (PBS(−) was used, FIG. 12(A)) and that observed for the experimental group (RF—NH2 was used, FIG. 12(B)), that the pattern of the rat hepatoma cell cycle is differently affected by the presence and absence of the peptide.
Then the patterns observed in FIGS. 12(A) and 12(B) were examined in detail. In the G0/G1 stage, the DNA content is 2n, while that observed in the M stage is two times that observed for the G0/G1 stage or 4n. In the analysis of data shown in FIGS. 12(A) and 12(B), the DNA contents of 2n and 4n correspond to peaks or wide peaks at 360 and 700, respectively. If it is assumed that the analyzed pattern of the cell cycle change shown in FIGS. 12(A) and 12(B) comprises a linear coupling of peaks specific to G0/G1, S, M stages, the rate of cells in each stage can be obtained by dividing the pattern into these individual components.

[7] = system: rat hepatoma cells (dRLh84); assay: Assay for cancer cell growth-control (viable cell count, trypan blue); type: cell-based
Protocol: as §2
The used culture medium was removed from a (100 mm dish (generally schale) in which cells were cultured and the dish was once washed with PBS(−) (prepared by removing Ca and Mg ions from phosphate buffered saline). To the dish, there was gently added 1.5 ml of a 10% trypsin solution so that the solution uniformly spreaded throughout the dish, 1 ml of the solution was removed, the dish was maintained at 37° C. for 5 minutes and it was confirmed with a microscope that the cells were pealed off from the bottom of the dish. Then 9.5 ml of a fresh DEME medium was added to the dish and the cells were separated into individual cells by pipetting to thus suspend the cells in the medium. Dishes of Φ100 mm were inoculated with this suspension in a dilution of 1/20 (total amount: 10 ml), followed by introduction thereof into an incubator and cultivation for 24 hours. Each peptide was added to these dishes in a predetermined concentration, followed by cultivation at 37° C., determination of the number of cells using a blood counting plate after 24 and 48 hours from the initiation of the cultivation to thus inspect the peptides for their cell growth-control functions.
Rat hepatoma cells (dRLh84, 3×10^5 cells) were cultured in a culture medium, to which the peptide (DILRG—NH2, SEQ ID NO:5, the peptide of SEQ ID NO:1 having the C-terminal amidated or DILRG—COOH, SEQ ID NO:1) was added in a predetermined amount (0, 50, 100, 150, 200 μg/ml) in the presence of 5% CO2 at 37° C. for 40 hours. Thereafter, the culture medium was treated with trypan blue to determine the […] cell count.
Thus, the cultivation time was extended to investigate the relation between the proliferation ability of cancer cells and the cultivation time using the physiologically active substance of the present invention. The method for cultivation used herein was identical to that used in Example 7. The cultivation time was extended up to 72 hours. The cultivation of 3×10^5 cells was carried out using a culture medium supplemented with PBS(−) for a control group and a cell culture medium for an experimental group, to which 200 μg/ml of the peptide (DILRG—NH2) was added, in the presence of 5% CO2 at 37° C. for 24, 48 and 72 hours, respectively. Thereafter, the culture medium was treated with trypan blue to determine the viable cell count.
The fact that the physiologically active substance derived from insects can results obtained in Examples 6, 7 and 8. […] Thus, we investigated which part of the 5 amino acid sequence of this substance is indispensable to the cell growth-control activity from the structural standpoint. Cells were cultured by the same method used in Example 6. More specifically, in the control group, there were used a culture medium supplemented with PBS(−) and FMRF—NH2(SEQ ID NO:4), which is widely distributed from echinoderms to insects and mammals, which comprises 4 amino acid residues and whose C-terminal is amidated. In an experimental group, there was used a culture medium supplemented with the complete synthetic peptide (DILRG—NH2) or an incomplete synthetic peptide (ILRG—NH2) free of the aspartic acid residue at the N-terminal in a concentration of 200 μg/2.6×10^5 cells. The control group and the experimental group were cultured at 37° C. for 48 hours in the presence of 5% CO2. Thereafter the cells were stained with trypan blue to thus determine the number of cells.

[8] = 100 pmol/0.05 μl injected once 24 hours after KK-42 treatment, N 10 × 3
[9] = after the acute toxicity test, 0.5 g/kg oral and percutaneous
[10] = oral and percutaneous routes, 0.5 g per unit body weight (1 kg)
[11] = 100 pmol/0.05 μl injected once 24 hours after KK-42 treatment
[12] = Table 2, 100 pmol/0.05 μl × 1, N 10 × 3
[13] = Table 2, 100 pmol/0.05 μl × 2 (24 hours apart), N 10 × 3
[14] = Table 2, 100 pmol/0.05 μl × 3 (24 hours apart), N 10 × 3
[15] = Example 10, 200 μg/2.6×10^5 cells, 48 hours

## 1-benzyl-5-[(E)-2,6-dimethyl-1,5-heptadienyl] [KK-42, reference compound]
[1]; 0.1 μg/0.5 μl solution in acetone applied on the ventral portion of each larva
  larvae awakened from the dormancy: 100%

## Cecropin
[2]
  anti-tumor activity to cultured cells: anti-tumor activity

## DILRG-OH [Asp-Ile-Leu-Arg-Gly-COOH]
[1]; [8]
  Number of Insects Died: 0

## H-DILRG-NH2 [Asp-Ile-Leu-Arg-Gly-NH2]
[3]; [9]
  testis tissue examined with a microscope: any abnormality was not observed at all
[3]; [10]
  acute toxicity such as convulsion and vomiting: not observed any acute toxicity
[4]; after 24 and 48 hours
  number of cancer cells compared with the initiation of the cultivation (0 hour): not increased at all
[4]; after 48 hours
  shape of the cells: changed from a spindle-like shape to a circular shape
[5]; [9]
  testis tissue examined with a microscope: any abnormality was not observed at all
[5]; [10]
  acute toxicity such as convulsion and vomiting: not observed any acute toxicity
[6]
  G0/G1 stage rate higher than that observed for the control group: not less than 30%
  Rate of cells in G0/G1 Stage: 66.07%
  Rate of cells in G2/M Stage: 12.10%
  Rate of cells in S Stage: 21.84%
  S stage rate lower than that observed for the control group: not less than 40%
[1]; [11]
  No. of Days (Time (day) required till Awakening): 6.72 days
  Rate (the rate of larvae awakening from dormancy): 53.3%
[1]; [8]
  Number of Insects Awa (Awakening from Dormancy): 16
  Number of Insects Died: 0
  Number of Insects Dor (Dormancy): 14
[1]; Table 2, 100 pmol/0.05 μl × 1
  Rate of Diapause Termination: 53.3%
[1]; [12]
  Number of Insects Awa (Diapause Termination): 16
  Number of Insects Died: 0
  Number of Insects Dor (Dormancy): 14
[1]; Table 2, 100 pmol/0.05 μl × 2 (24 hours apart)
  Rate of Diapause Termination: 30%
[1]; [13]
  Number of Insects Awa (Diapause Termination): 9
  Number of Insects Died: 0
  Number of Insects Dor (Dormancy): 21
[1]; Table 2, 100 pmol/0.05 μl × 3 (24 hours apart)
  Rate of Diapause Termination: 13.3%
[1]; [14]
  Number of Insects Awa (Diapause Termination): 4
  Number of Insects Died: 0
  Number of Insects Dor (Dormancy): 26
[7]; Example 7, 50 μg/ml, 3×10^5 cells cultured 40 hours
  viable cell count: markedly reduced
[7]; Example 7, 200 μg/ml, 3×10^5 cells cultured 40 hours
  viable cell count: 7.7×10^5 cells
[7]; Example 7, 200 μg/ml, 40 hours
  viable cell count relative to that observed for the control group: a half
[7]; Example 8, 200 μg/ml, from 3×10^5 cells within 72 hours
  viable cell count: 8×10^5 cells
[7]; Example 8, 200 μg/ml, within 72 hours
  factor of increase of the number of cells: 2.7
[7]; [15]
  viable cell count: ~7.7×10^5 cells
[7]; after cultivation for 48 hours with 200 μg/ml peptide
  cancer cell growth after transfer to fresh culture medium without peptide: rapidly began to proliferate like the control group

## Ile-Leu-Arg-Gly (ILRG-NH2) [ILRG—NH2]
[7]; [15]
  growth-inhibitory effect: sufficient growth-inhibitory effect
  viable cell count: 8.4×10^5 cells
